Data reported in ChEMBL document CHEMBL3885881, “DrugMatrix”.

Species on record: Rattus norvegicus
Test: DrugMatrix - Regimen: Daily Repeat
Assay type: toxicity, organism-based, Sprague-Dawley
Set-up: regimen Daily Repeat, gender Male, age 6-8 weeks
Details: in vivo, po, route oral GAVAGE, vehicle 100 % WATER; for ABSOLUTE BASOPHIL / ABSOLUTE EOSINOPHIL / ABSOLUTE LYMPHOCYTE / ABSOLUTE MONOCYTE / ABSOLUTE SEGMENTED NEUTROPHIL / BASOPHIL / EOSINOPHIL / ERYTHROCYTE COUNT / HEMATOCRIT / HEMOGLOBIN / LEUKOCYTE COUNT / LYMPHOCYTE / MEAN CORPUSCULAR HEMOGLOBIN / MEAN CORPUSCULAR HEMOGLOBIN CONCENTRATION / MEAN CORPUSCULAR VOLUME / MONOCYTE / NEUTROPHIL / NUCLEATED RED BLOOD CELLS / PLATELET COUNT: tissue Blood; for ALANINE AMINOTRANSFERASE / ALKALINE PHOSPHATASE / ASPARTATE AMINOTRANSFERASE / BLOOD UREA NITROGEN / CARBON DIOXIDE / CHLORIDE / CHOLESTEROL / CREATINE PHOSPHOKINASE / CREATININE / GLUCOSE / LACTATE DEHYDROGENASE / LIPASE / PHOSPHORUS / POTASSIUM / SODIUM / TOTAL BILIRUBIN / TOTAL PROTEIN / URIC ACID: tissue Plasma
[1] = 0 mg/kg, 72 h, dose level Control, time 3 day
[2] = 0 mg/kg, 120 h, dose level Control, time 5 day
[3] = 22 mg/kg, 72 h, dose level Low, time 3 day

COc1ccc(C(CN(C)C)C2(O)CCCCC2)cc1 (stereo unspecified) [VENLAFAXINE]
ABSOLUTE BASOPHIL [1]: 0 CELLS/uL
ABSOLUTE EOSINOPHIL [1]: 102 CELLS/uL
ABSOLUTE LYMPHOCYTE [1]: 12758 CELLS/uL
ABSOLUTE MONOCYTE [1]: 197.17 CELLS/uL
ABSOLUTE SEGMENTED NEUTROPHIL [1]: 1259.5 CELLS/uL
BASOPHIL [1]: 0%
EOSINOPHIL [1]: 0.83%
ERYTHROCYTE COUNT [1]: 5.3 x10E6/uL
HEMATOCRIT [1]: 33.47%
HEMOGLOBIN [1]: 13.12 G/DL
LEUKOCYTE COUNT [1]: 14.32 x10E3/uL
LYMPHOCYTE [1]: 89.33%
MEAN CORPUSCULAR HEMOGLOBIN [1]: 24.8 pg
MEAN CORPUSCULAR HEMOGLOBIN CONCENTRATION [1]: 39.18 G/DL
MEAN CORPUSCULAR VOLUME [1]: 63.25 fL
MONOCYTE [1]: 1.33%
NEUTROPHIL [1]: 8.5%
NUCLEATED RED BLOOD CELLS [1]: 0 /100WBC
PLATELET COUNT [1]: 1313.17 x10E3/uL
ALANINE AMINOTRANSFERASE [1]: 52.67 u/L
ALKALINE PHOSPHATASE [1]: 372 u/L
ASPARTATE AMINOTRANSFERASE [1]: 82.83 u/L
BLOOD UREA NITROGEN [1]: 15 mg/dL
CARBON DIOXIDE [1]: 25.67 mmol/L
CHLORIDE [1]: 102.17 MEQ/L
CHOLESTEROL [1]: 68.83 mg/dL
CREATINE PHOSPHOKINASE [1]: 285 u/L
CREATININE [1]: 0.18 mg/dL
GLUCOSE [1]: 149.17 mg/dL
LACTATE DEHYDROGENASE [1]: 263.83 u/L
LIPASE [1]: 10.17 u/L
PHOSPHORUS [1]: 12.58 mg/dL
POTASSIUM [1]: 6.58 MEQ/L
SODIUM [1]: 144.22 MEQ/L
TOTAL BILIRUBIN [1]: 0.22 mg/dL
TOTAL PROTEIN [1]: 5.83 G/DL
URIC ACID [1]: 1.58 mg/dL
ABSOLUTE BASOPHIL [2]: 0 CELLS/uL
ABSOLUTE EOSINOPHIL [2]: 24 CELLS/uL
ABSOLUTE LYMPHOCYTE [2]: 11134.17 CELLS/uL
ABSOLUTE MONOCYTE [2]: 56.33 CELLS/uL
ABSOLUTE SEGMENTED NEUTROPHIL [2]: 1235.5 CELLS/uL
BASOPHIL [2]: 0%
EOSINOPHIL [2]: 0.17%
ERYTHROCYTE COUNT [2]: 5.68 x10E6/uL
HEMATOCRIT [2]: 35.72%
HEMOGLOBIN [2]: 13.93 G/DL
LEUKOCYTE COUNT [2]: 12.45 x10E3/uL
LYMPHOCYTE [2]: 89.5%
MEAN CORPUSCULAR HEMOGLOBIN [2]: 24.63 pg
MEAN CORPUSCULAR HEMOGLOBIN CONCENTRATION [2]: 39.13 G/DL
MEAN CORPUSCULAR VOLUME [2]: 62.97 fL
MONOCYTE [2]: 0.5%
NEUTROPHIL [2]: 9.83%
NUCLEATED RED BLOOD CELLS [2]: 0 /100WBC
PLATELET COUNT [2]: 1204 x10E3/uL
ALANINE AMINOTRANSFERASE [2]: 59.5 u/L
ALKALINE PHOSPHATASE [2]: 415.67 u/L
ASPARTATE AMINOTRANSFERASE [2]: 91.33 u/L
BLOOD UREA NITROGEN [2]: 17 mg/dL
CARBON DIOXIDE [2]: 26.33 mmol/L
CHLORIDE [2]: 104.17 MEQ/L
CHOLESTEROL [2]: 77 mg/dL
CREATINE PHOSPHOKINASE [2]: 249.67 u/L
CREATININE [2]: 0.21 mg/dL
GLUCOSE [2]: 148.33 mg/dL
LACTATE DEHYDROGENASE [2]: 168.5 u/L
LIPASE [2]: 10.17 u/L
PHOSPHORUS [2]: 12.92 mg/dL
POTASSIUM [2]: 7.09 MEQ/L
SODIUM [2]: 148.37 MEQ/L
TOTAL BILIRUBIN [2]: 0.23 mg/dL
TOTAL PROTEIN [2]: 6.3 G/DL
URIC ACID [2]: 1.77 mg/dL
ABSOLUTE BASOPHIL [3]: 0 CELLS/uL
ABSOLUTE EOSINOPHIL [3]: 59.67 CELLS/uL
ABSOLUTE LYMPHOCYTE [3]: 13145.33 CELLS/uL
ABSOLUTE MONOCYTE [3]: 145.33 CELLS/uL
ABSOLUTE SEGMENTED NEUTROPHIL [3]: 1183 CELLS/uL
BASOPHIL [3]: 0%
EOSINOPHIL [3]: 0.33%
ERYTHROCYTE COUNT [3]: 5.58 x10E6/uL
HEMATOCRIT [3]: 35.93%
HEMOGLOBIN [3]: 14.03 G/DL
LEUKOCYTE COUNT [3]: 14.53 x10E3/uL
LYMPHOCYTE [3]: 90.67%
MEAN CORPUSCULAR HEMOGLOBIN [3]: 25.13 pg
MEAN CORPUSCULAR HEMOGLOBIN CONCENTRATION [3]: 39.1 G/DL
MEAN CORPUSCULAR VOLUME [3]: 64.33 fL
MONOCYTE [3]: 1%
NEUTROPHIL [3]: 8%
NUCLEATED RED BLOOD CELLS [3]: 0 /100WBC
PLATELET COUNT [3]: 1219 x10E3/uL
ALANINE AMINOTRANSFERASE [3]: 59.67 u/L
ALKALINE PHOSPHATASE [3]: 338 u/L
ASPARTATE AMINOTRANSFERASE [3]: 94.33 u/L
BLOOD UREA NITROGEN [3]: 15.67 mg/dL
CARBON DIOXIDE [3]: 24.33 mmol/L
CHLORIDE [3]: 103.67 MEQ/L
CHOLESTEROL [3]: 73.67 mg/dL
CREATINE PHOSPHOKINASE [3]: 320.67 u/L
CREATININE [3]: 0.17 mg/dL
GLUCOSE [3]: 162 mg/dL
LACTATE DEHYDROGENASE [3]: 412.33 u/L
LIPASE [3]: 11.33 u/L
PHOSPHORUS [3]: 13.2 mg/dL
POTASSIUM [3]: 6.69 MEQ/L
SODIUM [3]: 146.03 MEQ/L
TOTAL BILIRUBIN [3]: 0.13 mg/dL
TOTAL PROTEIN [3]: 6.2 G/DL
URIC ACID [3]: 2.33 mg/dL
